Measurements from patent US5464825A, “Raising glutathione equivalent levels using N-acyl glutathione monoesters” (Cornell Research Foundation, Inc., priority 1994, dated 1995).
Read-outs that look alike come from different tables or passages of the source. Blank lines part the entries; values can stand above or below the compound they belong to. *1 amine or outer side, *2 acyl side, *3 side chain or, on linkers, in order; H or OH if unused. Where a SMILES comes first, the peptide text is derived from it. [ ]: non-standard residue; d: D form. γGlu = O=C(O)[C@H](CCC(=O)[*:2])N[*:1]

[1] = kidney, 1 hour after 10 mmol/kg i.p., fasted BSO treated mice
[2] = kidney, 2.5 hours after 10 mmol/kg i.p., fasted BSO treated mice
[3] = liver, 1 hour after 10 mmol/kg i.p., fasted BSO treated mice
[4] = liver, 2.5 hours after 10 mmol/kg i.p., fasted BSO treated mice
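Also: mice fasted 18 h, given 10 mM BSO in drinking water plus BSO 2 mmol/kg 13 h and 3 h before dosing, controls got 0.9% NaCl, mean ± SD.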

Experimental: The N-acetyl GSH monoethyl ester was used. A solution of N-acetyl GSH monoester was prepared in aseptic water. Mice weighing 18 to 25 grams, obtained from Taconic Farms, Inc., (TAC:(SWFBR)), were fasted for 18 hours before injection with NAGEE. At the time of fasting, the drinking water contains 10 mM L-buthionine-SR-sulfoximine (BSO). All mice are injected with L-buthionine-SR-sulfoximine (BSO) (2 millimoles per kilogram; intraperitoneally) 13 hours before NAGEE injection. The mice are injected again with L-buthionine-SR-sulfoxminie (BSO) (2 millimoles per kg; subcutaneously) 3 hours prior to NAGEE injection. NAGEE or GSH are administered intraperitoneally (10 mmol/kg; the pH of the solution is adjusted to about 7 with sodium hydroxide). The GSH solution also contains ethanol at 10 mmol/kg. Control mice are given equivalent volumes of 0.9% sodium chloride. The mice were then injected intraperitoneally with the N-acetyl GSH monoethyl ester in a dose of 10 millimoles per kilogram. […] Using groups of 4 or 5 mice each, values are given as means plus or minus S.D.

Compound: N[C@@H](CCC(=O)N[C@@H](CS)C(=O)NCC(=O)O)C(=O)O [GSH, L-γ-glutamyl-L-cysteinylglycine, reference compound]
effect on glutathione levels in the kidney as compared to the controls (in words) (kidney, 10 mmol/kg i.p., fasted BSO treated mice): only a slight effect
GSH level, kidney [1]: 1.9 µmol/g
GSH level, kidney [2]: 1.01 µmol/g
GSH level, liver [3]: 1.38 µmol/g
GSH level, liver [4]: 0.45 µmol/g

levels of GSH monoethyl ester, NAGEE and NAG found (in words) (kidney, 10 mmol/kg i.p.): substantial levels
GEE level, kidney [1]: 0.92 µmol/g
NAG level, kidney [1]: 1.43 µmol/g
NAGEE level, kidney [1]: 5.54 µmol/g
GEE level, kidney [2]: 0.52 µmol/g
NAG level, kidney [2]: 0.79 µmol/g
NAGEE level, kidney [2]: 2.10 µmol/g
GSH mono-ethyl ester found in the liver (in words) (liver, 10 mmol/kg i.p.): a little
GEE level, liver [3]: 0.18 µmol/g
NAG level, liver [3]: 4.80 µmol/g
NAGEE level, liver [3]: 8.85 µmol/g
GEE level, liver [4]: 0.15 µmol/g
NAG level, liver [4]: 3.38 µmol/g
NAGEE level, liver [4]: 2.93 µmol/g
liver levels of N-acetyl GSH (in words) (liver, at 1 and 2.5 hours, 10 mmol/kg i.p.): increased dramatically
Compound: CCOC(=O)CNC(=O)[C@H](CS)NC(=O)CC[C@H](NC(C)=O)C(=O)O [NAGEE, N-acetyl glutathione monoethyl ester] (Ac-[γGlu]-Cys-Gly-OEt)
GSH equivalents total, kidney [1]: 10.51 µmol/g
GSH level, kidney [1]: 1.6 µmol/g
GSH equivalents total, kidney [2]: 5.67 µmol/g
GSH level, kidney [2]: 2.3 µmol/g
GSH level of the kidney (in words, FIGS. 1 and 2) (kidney, 2.5 hours after administration, 10 mmol/kg i.p.): increased substantially
GSH level of the kidney (in words) (kidney, at 5 hours, 10 mmol/kg i.p.): declined
GSH equivalents total, liver [3]: 14.28 µmol/g
GSH level, liver [3]: 0.45 µmol/g
GSH equivalent total, liver [4]: 7.17 µmol/g
GSH level, liver [4]: 0.71 µmol/g
liver levels of GSH (in words) (liver, at 2.5 hours, 10 mmol/kg i.p.): increased moderately
